Like-named read-outs stand apart in the source and are kept apart here.
Test system: heme oxygenase-1 (HO-1)
Assay: HO-1 promoter luciferase reporter screen (pHOGL3/4.5+220 stable HEK293 cells)
Assay type: cell-based, human
Conditions: Table 1; for Emax: HEK293, Emax as % of 5 μM hemin; for EC50: evaluation of thioquinolinones, HEK293 HO-1 reporter
Experimental: The generation of the pHOGL3/4.5+220 construct is described in Deshane, et al. (2010) “SpI regulates chromatin looping between an intronic enhancer and distal promoter of the human heme oxygenase-1 gene in renal cells” J Biol Chem 285(22): 16476-86. See also FIG. 1.
Briefly, BamHI sites were added to the 4.5-kb PCR product generated by long-range PCR from a bacterial artificial chromosome clone containing portions of chromosome 22 (accession no. Z82244), including the HO-1 gene. This fragment was cloned into the Bg/II restriction site of the multiple cloning region to make the parental clone (pHOGL3/4.5). The 220-bp intronic enhancer was amplified with SalI sites on either end and cloned into the SalI site of the vector to generate pHOGL3/4.5+220.
In order to generate cells that stably express luciferase expression vectors that lack a mammalian antibiotic selection cassette, HEK293 cells were co-transfected with either pHOGL3/4.5+220 (Deshane et al, 2010) or the Triple Mutant construct (Liby, Hock et al, 2005; Hock et al, 2007) and pcDNA3.1 Zeocin using Lipofectamine 2000. Cells were cultured in Zeocin (400 ug/ml; Invitrogen) for selection. Individual clones were sorted by flow cytometry and plated into a 96-well plate at a density of one cell per well. Clones were maintained and expanded in complete media (DMEM/10% FBS/1× antibiotic-antimycotic) supplemented with 100 ug/ml Zeocin, and incubated at 37° C. in 5% carbon dioxide. Incorporation of the Luciferase expression vectors was validated by assaying for luciferase. […]

| Structure (SMILES) | EC50 (Homo sapiens, read-out: EC50) | EC50 | Emax (Homo sapiens) |
| --- | --- | --- | --- |
| Oc1ccc(CSc2cccc3cccnc23)cc1 [Compound 2] | 340 nM |  | 127% |
| Oc1ccc(CSc2cccc3cccnc23)cc1F [Compound 3] | 200 nM |  | 83.7% |
| Oc1ccc(CSc2cccc3cccnc23)cc1Cl [Compound 4] | 340 nM |  | 106% |
| Oc1c(F)c(F)c(CSc2cccc3cccnc23)c(F)c1F [Compound 6] | 1050 nM |  | 113% |
| Fc1cc(F)cc(CSc2cccc3cccnc23)c1 [Compound 8] |  | Inactive |  |
| Oc1ccc(COc2cccc3cccnc23)cc1 [Compound 11] |  | Inactive |  |
| Oc1ccc(CCSc2cccc3cccnc23)cc1 [Compound 13] | 19000 nM |  | 122% |
| Oc1ccc(CSc2cccc3cccnc23)cc1 [Compound 14] |  | Inactive |  |
| Oc1c(F)cc(CSc2ccnc3ccccc23)cc1F [Compound 15] |  | Inactive |  |
| Oc1c(F)cc(CSc2ccncc2)cc1F [Compound 17] |  | Inactive |  |

Now from value to molecule, other results behind:

| EC50 (Homo sapiens, read-out: EC50) | EC50 | Structure (SMILES) | Emax (Homo sapiens) |
| --- | --- | --- | --- |
| 430 nM |  | Oc1c(F)cc(CSc2cccc3cccnc23)cc1F [Compound 1, 2,6-difluoro-4-((quinolin-8-ylthio)methyl)phenol] | 154% |
| 420 nM |  | Oc1c(F)cc(CSc2cccc3cccnc23)cc1Cl [Compound 5] | 113% |
| 5250 nM |  | Oc1c(F)cc(F)cc1CSc1cccc2cccnc12 [Compound 7] | 55.2% |
| 340 nM |  | [O-][S+](Cc1cc(F)c(O)c(F)c1)c1cccc2cccnc12 (stereo not drawn) [Compound 9] | 106% |
|  | Inactive | O=S(=O)(Cc1cc(F)c(O)c(F)c1)c1cccc2cccnc12 [Compound 10] |  |
|  | Inactive | Oc1c(F)cc(CCSc2cccc3cccnc23)cc1F [Compound 12] |  |
|  | Inactive | Oc1c(F)cc(CSc2nccc3ccccc23)cc1F [Compound 16] |  |
|  | Inactive | Oc1c(F)cc(CSc2cccc3ccccc23)cc1F [Compound 18] |  |
|  | Inactive | COc1c(F)cc(CSc2cccc3cccnc23)cc1F [Compound 19, 8-((3,5-difluoro-4-methoxybenzyl)thio)quinolone] |  |
| 20000 nM |  | COc1c(F)cc(CCSc2cccc3cccnc23)cc1F [Compound 20] | 69.9% |
|  | Inactive | O=S(=O)(Nc1cc(F)c(O)c(F)c1)c1cccc2cccnc12 [Compound 21] |  |
|  | Inactive | O=C(Nc1cccc2cccnc12)c1cc(F)c(O)c(F)c1 [Compound 22] |  |
|  | Inactive | O=C(Nc1cc(F)c(O)c(F)c1)c1cccc2cccnc12 [Compound 23] |  |

— US11945781B2, “Compounds for the treatment of acute and chronic kidney disease” (Southern Research Institute, priority 2020, dated 2024)
